Results reported in ChEMBL document CHEMBL1153249, “Conversion of 4-cyanomethyl-pyrazole-3-carboxamides into CB1 antagonists with lowered propensity to pass the blood-brain-barrier” (Bioorg Med Chem Lett, 2010).
≈ marks a conversion by molar mass, not a printed value. Calls of active or inactive are those of the source. The rule behind the calls is not given here.

Assays:
[1] = Oral bioavailability in rat; assay type: ADME, organism-based; settings: in vivo
[2] = Stability in rat microsomes assessed as compound remaining after 30 mins; assay type: ADME, Microsome; settings: read-out: Stability
[3] = Solubility of the compound; assay type: physicochemical
Cannabinoid receptor 1 [4] = biological target: T1, Cannabinoid receptor 1 (Homo sapiens, UniProt P21554); experiment: Displacement of [3H]CP-55940 from human CB1 receptor expressed in CHO-K1 cells; assay type: cell-based
T1 sequence (P21554 whole entry): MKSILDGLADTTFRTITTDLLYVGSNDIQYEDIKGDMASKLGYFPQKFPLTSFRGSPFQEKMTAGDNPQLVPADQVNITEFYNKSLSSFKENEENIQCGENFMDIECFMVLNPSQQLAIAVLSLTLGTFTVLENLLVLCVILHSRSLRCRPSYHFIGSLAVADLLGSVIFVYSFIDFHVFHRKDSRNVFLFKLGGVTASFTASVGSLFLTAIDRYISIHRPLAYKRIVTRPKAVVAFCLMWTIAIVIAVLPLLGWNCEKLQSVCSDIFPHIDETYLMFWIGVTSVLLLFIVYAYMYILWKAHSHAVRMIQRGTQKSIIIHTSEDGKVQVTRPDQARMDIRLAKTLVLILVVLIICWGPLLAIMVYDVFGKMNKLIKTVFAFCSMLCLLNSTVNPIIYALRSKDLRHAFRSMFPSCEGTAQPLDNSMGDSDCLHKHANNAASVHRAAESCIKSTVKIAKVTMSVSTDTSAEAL

Cannabinoid receptor 1 [5] = biological target: T1, Cannabinoid receptor 1; experiment: Inverse agonist activity at human CB1 receptor expressed in CHO-K1 cells by GTPgammaS binding assay; assay type: functional, cell-based
Cannabinoid receptor 1 [6] = biological target: T1, Cannabinoid receptor 1; assay type: functional, cell-based, CHO-K1
Description: Antagonist activity at human CB1 receptor expressed in CHO-K1 cells assessed as inhibition of CP-55940-induced GTPgammaS binding

[7] = Lipophilicity, log D by chromatography; assay type: physicochemical
[8] = Stability in mouse microsomes after 30 mins; assay type: ADME, Microsome; settings: 0.5 h
[9] = Ratio of drug level in plasma to brain in rat at 10 mg/kg, ip after 6 hrs; assay type: ADME, organism-based; parameters: dose 10 mg/kg, route intraperitoneal; settings: in vivo
[10] = Stability in rat microsomes after 30 mins; assay type: ADME, Microsome; settings: 0.5 h
[11] = Bioavailability in ip dosed rat; assay type: ADME, organism-based; settings: in vivo
Mus musculus [12] = experiment: Reduction in body weight in diet-induced obese mouse at 10 mg/kg, po; assay type: functional; parameters: scale not given: the % may be the effect or the level left
Mus musculus [13] = experiment: Reduction in WIN-55212-induced hypothermia in mouse at 10 mg/kg po pretreated 40 mins prior to WIN-55212 challenge measured after 1 hr; assay type: functional, organism-based; parameters: dose 10 mg/kg
[14] = Ratio of drug level in plasma to brain in po dosed diet-induced obese mouse after 6 hrs; assay type: ADME, organism-based; settings: in vivo
[15] = Selectivity for human CB1 receptor over CB2 receptor by GTPgammaS binding assay
Mus musculus [16] = experiment: Reduction in body weight in diet-induced obese mouse at 3 mg/kg, po; assay type: functional; parameters: scale not given: the % may be the effect or the level left
[17] = Oral bioavailability in mouse; assay type: ADME, organism-based; settings: in vivo
[18] = Ratio of drug level in plasma to brain in mouse at 10 mg/kg, po after 6 hrs; assay type: ADME, organism-based; parameters: dose 10 mg/kg, route oral; settings: in vivo
Cannabinoid receptor 1 [19] = biological target: T1, Cannabinoid receptor 1; experiment: biochemical; assay type: cell-based, COS-7
Description: Displacement of [3H]CP-55940 from human CB1 receptor expressed in COS7 cells

Mus musculus [20] = experiment: Reduction in WIN-55212-induced hypothermia in mouse at 1 mg/kg po pretreated 40 mins prior to WIN-55212 challenge measured after 1 hr; assay type: functional, organism-based; parameters: dose 1 mg/kg

SMILES | solubility ([3]; read-out: solubility) | IC50 (Cannabinoid receptor 1 [4]) | IC50 (Cannabinoid receptor 1 [5]) | IC50 (Cannabinoid receptor 1 [6]) | chromatographic logD [7] | also measured
NC(=O)Cc1c(C(=O)NN2CCCCC2)nn(-c2ccccc2Cl)c1-c1ccc(Cl)cc1 | 4.5 µM (≈ 2.13 µg/mL) | 1.8 nM | 0.82 nM | 1.4 nM | 2.6 | bioavailability [1]: 2%; remaining at 0.5 h [2]: 72%
NC(=O)Cc1c(C(=O)N2CCC(C(=O)O)(c3ccccn3)CC2)nn(-c2ccccc2Cl)c1-c1ccc(Cl)cc1 | 425 µM (≈ 246 µg/mL) | 23 nM | 10 nM | 16 nM | 1.5 | –
N=C(N)Cc1c(C(=O)N2CCC(c3ncccn3)CC2)nn(-c2ccccc2Cl)c1-c1ccc(Cl)cc1 | – | – | 0.59 nM | 9.7 nM | – | –
N#CC1(c2ccccc2)CCN(C(=O)c2nn(-c3ccccc3Cl)c(-c3ccc(Cl)cc3)c2CC(N)=O)CC1 | 9 µM (≈ 5.03 µg/mL) | 0.78 nM | 0.11 nM | 0.23 nM | 3.4 | –
N=C(N)Cc1c(C(=O)Nc2ccc(F)cc2)nn(-c2ccccc2Cl)c1-c1ccc(Cl)cc1 | – | – | – | 1.5 nM | – | Stability [8]: Stable; Ratio [9]: 3.2; Stability [10]: Stable; bioavailability [11]: 19%
N#CCc1c(C(=O)NN2CCCCC2)nn(-c2ccccc2Cl)c1-c1ccc(Cl)cc1 | – | – | 1.8 nM | – | – | –
NC(=O)Cc1c(C(=O)N2CCC(O)(c3ccc(F)cc3)CC2)nn(-c2ccccc2Cl)c1-c1ccc(Cl)cc1 | 75 µM (≈ 42.6 µg/mL) | 2.6 nM | 0.1 nM | 0.19 nM | 2.8 | bioavailability [1]: 70%; Activity (Mus musculus [12]): 15.1%; Activity (Mus musculus [13]): inactive; Ratio [14]: 13; Selectivity ratio [15]: 1000; Activity (Mus musculus [16]): 5.6%; bioavailability [17]: 100%; Ratio [18]: 10.2
NC(=O)Cc1c(C(=O)N2CCC(O)(c3ccc(F)cn3)CC2)nn(-c2ccccc2Cl)c1-c1ccc(Cl)cc1 | 290 µM (≈ 165 µg/mL) | – | 2.1 nM | – | 2.5 | IC50 (Cannabinoid receptor 1 [19]): 5.5 nM
N#Cc1ccc(N2CCN(C(=O)c3nn(-c4ccccc4Cl)c(-c4ccc(Cl)cc4)c3CC(N)=O)CC2)nc1 | – | 4.6 nM | 1.4 nM | 1.2 nM | 2.8 | –
NC(=O)Cc1c(C(=O)NN2CCOCC2)nn(-c2ccccc2Cl)c1-c1ccc(Cl)cc1 | – | 7.9 nM | 1.7 nM | 7 nM | 1.8 | –
N=C(N)Cc1c(C(=O)N2CCC(O)(c3ccc(F)cc3)CC2)nn(-c2ccccc2Cl)c1-c1ccc(Cl)cc1 | – | – | – | 1.9 nM | – | –
Cc1c(C(=O)NN2CCCCC2)nn(-c2ccc(Cl)cc2Cl)c1-c1ccc(Cl)cc1 [RIMONABANT] | – | – | – | – | – | Activity (Mus musculus [12]): 14.5; solubility [3]: 10 µM (≈ 4.64 µg/mL); Activity (Mus musculus [20]): Active
N#CCc1c(C(=O)N2CCC(c3ncccn3)CC2)nn(-c2ccccc2Cl)c1-c1ccc(Cl)cc1 | – | – | – | 3.8 nM | – | –
N=C(N)Cc1c(C(=O)NN2CCCCC2)nn(-c2ccccc2Cl)c1-c1ccc(Cl)cc1 | – | – | 0.4 nM | 0.93 nM | – | –
N#CN1CCC(CNC(=O)c2nn(-c3ccccc3Cl)c(-c3ccc(Cl)cc3)c2CC(N)=O)CC1 | 16 µM (≈ 8.18 µg/mL) | – | 0.49 nM | 0.66 nM | 2.9 | IC50 (Cannabinoid receptor 1 [19]): 0.34 nM
